Assays:
[1] = Inhibition of P-glycoprotein NBD2 domain assessed as quenching of intrinsic fluorescence at 60 uM; design: scale not given: the % may be the effect or the level left
[2] = molecular target: ATP-dependent translocase ABCB1 (Homo sapiens, UniProt P08183); assay: Inhibition of P-glycoprotein-mediated daunomycin transport in human K562/R7 cells assessed as accumulation at 5 uM; type: cell-based; design: scale not given: the % may be the effect or the level left; conditions: k562/r7, 5 µM
Sequence of ATP-dependent translocase ABCB1 (P08183 whole entry, the tested form may be a part): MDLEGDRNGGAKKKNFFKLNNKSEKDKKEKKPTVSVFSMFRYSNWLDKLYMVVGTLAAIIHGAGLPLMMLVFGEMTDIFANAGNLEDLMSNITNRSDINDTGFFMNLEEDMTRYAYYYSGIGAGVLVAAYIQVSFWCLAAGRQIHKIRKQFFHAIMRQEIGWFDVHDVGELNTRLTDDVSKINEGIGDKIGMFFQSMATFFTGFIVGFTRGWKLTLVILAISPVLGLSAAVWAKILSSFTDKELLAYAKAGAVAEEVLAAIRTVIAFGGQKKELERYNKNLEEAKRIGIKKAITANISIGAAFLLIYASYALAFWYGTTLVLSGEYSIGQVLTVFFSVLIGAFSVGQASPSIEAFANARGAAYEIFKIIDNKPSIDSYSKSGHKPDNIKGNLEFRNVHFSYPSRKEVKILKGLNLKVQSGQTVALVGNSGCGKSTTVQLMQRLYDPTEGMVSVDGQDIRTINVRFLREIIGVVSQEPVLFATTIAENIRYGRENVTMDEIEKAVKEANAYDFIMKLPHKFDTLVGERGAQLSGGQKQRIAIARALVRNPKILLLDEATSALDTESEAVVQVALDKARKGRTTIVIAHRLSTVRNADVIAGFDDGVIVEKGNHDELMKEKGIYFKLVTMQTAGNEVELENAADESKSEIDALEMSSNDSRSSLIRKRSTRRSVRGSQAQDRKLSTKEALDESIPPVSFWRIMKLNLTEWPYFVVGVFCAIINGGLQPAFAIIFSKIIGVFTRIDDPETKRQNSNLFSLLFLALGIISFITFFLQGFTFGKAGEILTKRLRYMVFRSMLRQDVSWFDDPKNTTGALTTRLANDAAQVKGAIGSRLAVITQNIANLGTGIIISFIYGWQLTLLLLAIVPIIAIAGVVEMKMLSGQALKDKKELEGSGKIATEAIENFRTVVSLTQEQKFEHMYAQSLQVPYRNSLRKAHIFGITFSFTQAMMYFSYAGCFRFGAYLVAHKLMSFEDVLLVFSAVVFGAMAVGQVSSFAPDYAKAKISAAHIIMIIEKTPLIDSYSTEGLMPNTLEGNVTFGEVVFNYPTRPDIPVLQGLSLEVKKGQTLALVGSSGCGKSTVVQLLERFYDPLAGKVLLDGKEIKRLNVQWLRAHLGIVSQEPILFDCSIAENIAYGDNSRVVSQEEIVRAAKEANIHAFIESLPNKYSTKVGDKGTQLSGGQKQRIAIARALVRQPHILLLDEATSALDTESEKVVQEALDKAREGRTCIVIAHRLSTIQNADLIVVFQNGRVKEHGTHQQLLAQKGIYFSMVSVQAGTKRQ

[3] = Inhibition of P-glycoprotein NBD2 domain

Activity [1] [%] | Activity [2] [%] | Kd [3] [µM] | Structure (SMILES)
13.8 | 80 | – | CCCCCC(=O)O[C@H]1[C@@H](C)C[C@]2(OC(C)=O)C(=O)/C(C)=C/[C@@H]3[C@H](CC/C(COC(C)=O)=C/[C@@H]12)C3(C)C
78.5 | 95 | 16.9 | CCCCCC(=O)O[C@H]1[C@@H](C)C[C@]2(OC(C)=O)C(=O)/C(C)=C/[C@@H]3[C@H](CC/C(CO)=C/[C@@H]12)C3(C)C
